According to patent US10035806B2, “Derivatized corroles and metallocorroles and their use as imaging and therapeutic agents” (CALIFORNIA INSTITUTE OF TECHNOLOGY, priority 2015, dated 2018):
pIC50: −log10 of the molar value. Marks after values point to notes of the source that are not given here.

Tests used:
Format in all cases: cell-based, human
DU-145 = experiment: MTS assay (cytotoxicity); conditions: DU-145 (prostate), 72 h exposure in the dark, MTS assay, mean of three experiments
Description: (§1) Reagents were obtained from the indicated suppliers: HBSS without phenol red and trypsin-EDTA (0.25%), Invitrogen/Gibco; PBS, Mediatech; 4′,6-diamidino-2-phenylindole dihydrochloride (DAPI) and DMSO, Sigma-Aldrich; paraformaldehyde, Electron Microscopy Sciences; WGA, Alexa Fluor 488 conjugate, Invitrogen/Molecular Probes; and ProLong Gold Antifade Mountant with DAPI, Life Technologies. Human Cancer Cell Lines. Four cell lines from the NCI60 cell panel (Shoemaker RH (2006) The NCI60 human tumour cell line anticancer drug screen. Nat Rev Cancer 6(10):813-823) representing four distinct tumor types were used in this study: DU-145, prostate; MDA-MB-231, breast; SK-MEL-28, melanoma; and OVCAR-3, ovarian. Cells were grown in RPMI 1640 cell culture medium (Mediatech) containing 2 mM L-glutamine, supplemented with 10% FBS (Omega Scientific), and maintained at 37° C. under 5% CO2 in a humidified incubator.
(§2) At the time of drug treatment, stock solutions of 1-4 were diluted to 10-fold the desired final test concentrations with RPMI medium 1640. Aliquots of […] of these diluted solutions were added to the appropriate microtiter wells containing 90 μL of medium, resulting in the required final drug concentrations (eight concentrations per compound, ranging from 0.3 to 600 μM). The final concentration of DMSO in test culture was <1%. […] Following 72 h of exposure at 37° C., cell viability was determined using the MTS assay (CellTiter 96 Aqueous One Cell Proliferation Assay; Promega) according to the manufacturer's instructions. Absorbances were measured using a microplate reader (Synergy 4; Biotek Instruments) at 490 nm. Experiments were performed in triplicate and each dose-response curve represents the mean of three or more independent experiments. Spectrophotometric data were analyzed by sigmoid dose-response, nonlinear regression analysis; the IC50, Emax values, and associated SE were calculated using GraphPad Prism 6 (GraphPad Software).
(§3) The effects of bis-sulfonate, carboxylate, and aminocaproate ring substituents on gallium corrole cytotoxicities were examined using four human cancer cell lines, representing tumors of different origin selected based on previously described sensitivities.

MDA-MB-231 = experiment: MTS assay (cytotoxicity); conditions: MDA-MB-231 (breast), 72 h exposure in the dark, mean of three experiments
Description: as §1, §2, §3

OVCAR-3 = experiment: MTS assay (cytotoxicity); conditions: OVCAR-3 (ovarian), 72 h exposure in the dark, mean of three experiments
Description: as §1, §2, §3

SK-MEL-28 = experiment: MTS assay (cytotoxicity); conditions: SK-MEL-28 (melanoma), 72 h exposure in the dark, mean of three experiments
Description: as §1, §2, §3

IGROV1 = experiment: NCI60 anticancer drug screen; conditions: IGROV1 (Ovarian Cancer), 10 μM, 48 h
Description: (§4) The aminocaproate-substituted corrole Complex 3 was submitted to NCI for cytotoxic screening at a single high dose (10−5M) in a panel of 60 human tumor cell lines (NCI60). Details of the cytotoxicity assessment in the NCI anticancer drug screen have been described previously, in Monks A, et al. (1991) Feasibility of a high-flux anticancer drug screen using a diverse panel of cultured human tumor cell lines. J Natl Cancer Inst 83(11):757-766, this reference being incorporated by reference for these teachings.
(§5) In view of the promising results observed for carboxylated corroles, Complex 3 was selected for expanded cell screening to uncover additional susceptible cancer cell lines. The cytotoxic activity of Complex 3 was tested at a dose of 10^−5 M against 60 human cancer cell lines representing nine distinct tumor types in the anticancer screening program of the National Cancer Institute (NCI). The in vitro parameters for cytotoxicity, growth percent, and lethality were obtained for Complex 3 and reported as a mean graph of the percent growth of treated cells (FIG. 7). Bars in the mean graph depict the deviation of individual tumor cell lines from the overall mean value for all cells tested. Bars that project to the right of the mean represent cell lines that are more sensitive to Complex 3, whereas cell lines less sensitive to the compound display bars that project to the left.
(§6) The numerical values associated with this assay represent growth relative to the no-drug control and the numbers of cells at time 0 (FIG. 7). This allows detection of both growth inhibition (values between 0 and 100) and lethality (values less than 0). For example, a value of 100 signifies no growth inhibition, 40 means 60% growth inhibition, 0 means no net growth over the course of the experiment, −40 means 40% lethality, and −100 indicates all cells are dead. […] Growth inhibitions reflect cytostatic activity of the compound as previously shown for Complex 2. In contrast, cell lethality is only evident in melanoma cells, specifically the LOX IMVI and SK-MEL-28 cell lines.

KM12 = experiment: NCI60 anticancer drug screen; conditions: KM12 (Colon cancer), 10 μM, 48 h
Description: as §4, §5, §6

M14 = experiment: NCI60 anticancer drug screen; conditions: M14 (Melanoma), 10 μM, 48 h
Description: as §4, §5, §6

MALME-3M = experiment: NCI60 anticancer drug screen; conditions: MALME-3M (Melanoma), 10 μM, 48 h
Description: as §4, §5, §6

MDA-MB-435 = experiment: NCI60 anticancer drug screen; conditions: MDA-MB-435 (Melanoma), 10 μM, 48 h
Description: as §4, §5, §6

MDA-MB-468 = experiment: NCI60 anticancer drug screen; conditions: MDA-MB-468 (Breast Cancer), 10 μM, 48 h
Description: as §4, §5, §6

MOLT-4 = experiment: NCI60 anticancer drug screen; conditions: MOLT-4 (Leukemia), 10 μM, 48 h
Description: as §4, §5, §6

NCI-H322M = experiment: NCI60 anticancer drug screen; conditions: NCI-H322M (Non-small-cell lung cancer), 10 μM, 48 h
Description: as §4, §5, §6

SF-295 = experiment: NCI60 anticancer drug screen; conditions: SF-295 (CNS Cancer), 10 μM, 48 h
Description: as §4, §5, §6

SR = experiment: NCI60 anticancer drug screen; conditions: SR (Leukemia), 10 μM, 48 h
Description: as §4, §5, §6

TK-10 = experiment: NCI60 anticancer drug screen; conditions: TK-10 (Renal Cancer), 10 μM, 48 h
Description: as §4, §5, §6

UO-31 = experiment: NCI60 anticancer drug screen; conditions: UO-31 (Renal Cancer), 10 μM, 48 h
Description: as §4, §5, §6

LOX IMVI = experiment: NCI60 anticancer drug screen; conditions: LOX IMVI (Melanoma), 10 μM, 48 h; lethality rather than inhibition

Compound `O=C(O)CCCCCNc1c(F)c(F)c(C2=C3C=CC4=[N+]3[Ga-]35[n]6c2ccc6C(c2c(F)c(F)c(F)c(F)c2F)=c2ccc([n]23)=C(c2c(F)c(F)c(F)c(F)c2F)c2ccc4[n]25)c(F)c1F` (centres unmarked) [Complex 3] has a pIC50 (DU-145) of 4.75, a pIC50 (MDA-MB-231) of 4.86 and a pIC50 (OVCAR-3) of 4.90. For the same compound, the pIC50 (SK-MEL-28) was 4.84, the “Growth inhibition, %” value (IGROV1) was 55.7% and the “Growth inhibition, %” value (KM12) was 80.6%. For the same compound, the “Growth inhibition, %” value (M14) was 84.1%, the “Growth inhibition, %” value (MALME-3M) was 50.4% and the “Growth inhibition, %” value (MDA-MB-435) was 90.8%. The “Growth inhibition, %” value (MDA-MB-468) was 86.3%, the “Growth inhibition, %” value (MOLT-4) was 86.0% and the “Growth inhibition, %” value (NCI-H322M) was 32.9%. The “Growth inhibition, %” value (SF-295) was 53.2%, the “Growth inhibition, %” value (SR) was 87.5% and the “Growth inhibition, %” value (TK-10) was 47.3%. The “Growth inhibition, %” value (UO-31) was 64.7% and the “% lethality” value (LOX IMVI) was 9.7** %.
